# Measurements taken from patent publication US11129867B2, “Method of treating cancer cells” (priority 2017, dated 2021).
# Where a SMILES comes first, the peptide text is derived from it. The star is where a group is joined. X1 = CN(C)c1ccc2c(-c3ccc(C(=O)*)cc3C(=O)[O-])c3ccc(=[N+](C)C)cc-3oc2c1
# Experiments:
# [1] = system: HeLa-Kyoto; assay: WST-8 cell viability assay, HeLa-Kyoto; format: cell-based; conditions: HeLa-Kyoto (cervical cancer), different concentrations, 48 hours, FIG. 3
# Protocol: (§1) Human oral squamous cell carcinoma (OSCC) cell lines, Ca922, OSC20, OECM-1, OC3, CGHNC9, HSC3, plus A549, MDA-MB-231, MCF7, Huh7, HeLa-Kyoto, Detroit 562, H520, H2170, and 293T cells were used in this study. Ca922, CGHNC9, MDA-MB-231, MCF7, Huh7, HeLa-Kyoto, Detroit 562, and 293T cells were all cultured in high-glucose Dulbecco's Modified Eagle Medium (DMEM). OSC20 and HSC3 cells were cultured in Dulbecco's Modified of Eagle's Medium/Ham's F-12 50/50 Mix (1:1). OECM-1, A549, H520, and H2170 cells were grown in RPMI-1640 medium. All culture media were supplemented with 10% fetal bovine serum (FBS) and 1% penicillin-streptomycin. OC3 cells were cultured in 1:1 DMEM/KSFM (keratinocyte serum-free medium) with supplied supplement of Bovine pituitary extract (BPE) and epidermal growth factor (EGF) followed by instruction. All the cells in this study were maintained at 37° C. in humidified atmosphere containing 5% CO2.
# (§2) WST-8 [2-(2-methoxy-4-nitrophenyl)-3-(4-nitrophenyl)-5-(2,4-disulfophenyl)-2H-tetrazolium, monosodium salt] cell viability assay
# (§3) Cells were seeded into 96 well plate and incubated at 37° C. overnight. […] The amount of formazan produced is proportional to the number of live cells and is expressed as cellular viability. […] Cell viability was measured at the absorbance of 450/655 nm wavelength by ELISA reader.
# [2] = system: Detroit 562; assay: WST-8 cell viability assay, Detroit 562; format: cell-based; conditions: Detroit 562 (pharynx cancer), different concentrations, 48 hours, FIG. 5
# Protocol: as §1, §2
# (§4) Cells were seeded into 96 well plate and incubated at 37° C. overnight. Endpoint measures of TMR-GBP or drugs were performed by water soluble tetrazolium salt (WST-8)-based colorimetric assay in triplicate which measures the metabolic conversion of WST-8 into formazan by mitochondrial dehydrogenases present in viable cells. The amount of formazan produced is proportional to the number of live cells and is expressed as cellular viability. When time was up, media were removed and supplemented with WST-8 cell viability reagent-contained cell culture medium (1:10) and incubated at 37° C. for 2 hours. Besides, three wells with WST-8-dissolved medium only (without cells) were reserved as a background control. Cell viability was measured at the absorbance of 450/655 nm wavelength by ELISA reader.
# [3] = system: A549; assay: WST-8 cell viability assay, A549; format: cell-based; conditions: A549 (lung cancer), different concentrations, 48 hours, FIG. 3
# Protocol: as §1, §2, §3
# [4] = system: Bax; assay: Western blotting of pro-apoptotic protein Bax; format: cell-based, human; conditions: Ca922, 25 μM, indicated time points, FIG. 6C
# Protocol: Protein expression of pro-apoptotic protein Bax were examined in Ca922 cells treated with 25 μM TMR-GBP for indicated time points. The relative protein level was presented below the blot as ratios which was normalized to Bax value of control cells (0 hour).
# (§5) Western Blotting Analysis
# (§6) Cells were harvested by trypsion or scratch and lysed in RIPA buffer (50 mM Tris-HCl, pH 7.4, 150 mM NaCl, 0.1% SDS, 0.5% Sodium deoxycholate, 1% NP-40) supplemented with 1× protease inhibitor cocktail. Sample was incubated on ice for 30 minutes and scraped every 10 minutes. Centrifuge at 13,000 rpm at 4° C. for 15 minutes, then collect supernatant for analysis. Protein concentration was determined by Bradford assay. First, 5× Bradford assay dye reagent was diluted into […], and mixture with RIPA (as standard) or samples. Concentration was obtained by spectrophotometer measurement. Equal volume of 2× laemmli buffer containing β-ME was added into protein lysate for goal concentration. Protein samples were boiled at 100° C. for 15 minutes and resolved by 10% SDS-PAGE gel or 4%-15% gradient gel. Then, transfer to PVDF membrane by 100V or 110V voltage for 1 hour. […] Washing the membrane three times with 1×PBST for every 5 minutes, protein band was detected by modified ECL (ddH2O, […] Tris pH8.0, 200 μM p-coumaric acid, 1.25 mM luminal, 0.001% H2O2) with ImageQuant LAS 4000 digital imaging system.
# [5] = system: H520; assay: WST-8 cell viability assay, H520; format: cell-based; conditions: H520 (lung cancer), different concentrations, 48 hours, FIG. 5
# Protocol: as §1, §2, §4
# [6] = system: phospho-γH2Ax; assay: Immunofluorescence staining of phospho-γH2Ax (DNA damage); format: cell-based, human
# Protocol: Representative images showing DAPI-labelled nucleus (shown in blue) co-stained with phospho-γH2Ax (green). Ca922 cells were treated with 25 μM TMR-GBP for 12 or 24 hours followed by immunofluorescence staining. Foci in the nucleus indicated damaged DNA. Scale bar indicates 10 μm.
# At least 20 cells were counted in each category. Bars indicate standard deviations from three independent experiments.
# Immunofluorescence Staining
# Cells grown on coverslips were washed with 1×PBS and fixed by PTEMF buffer (20 mM PIPES pH 6.8, 0.2% Triton X-100, 10 mM EGTA, 1 mM MgCl2, and 4% formaldehyde) or 4% paraformaldehyde for 10 minutes at room temperature. Then, fixation buffer was replaced with 1×PBST and the cells were washed with 1×PBST for another 10 minutes at room temperature. Coverslips were washed with 1×PBST twice gently and incubated with primary antibodies at room temperature for 1 hour. Next, washed with PBST for three times (2, 2, 5 minutes). Afterwards, coverslips were cultured in Alex Fluor-conjugated secondary antibodies and DAPI at room temperature for 30 minutes, washed three times (2, 2, 5 minutes), rinsed with ddH2O and mounted with mounting medium. Antibodies concentration used in this analysis is 1:1000 dilution. Images were acquired with specific fluorescence wavelength by Leica DMI6000 inverted microscope equipped with HCX PL FL 100λ/NA1.40 objective and EMCCD camera. All images were analyzed by MetaMorph software.
# [7] = system: Caspase-3; assay: Western blotting of Caspase-3; format: cell-based, human; conditions: Ca922, 25 μM, treatment time up to 48 hours, FIG. 11B, 11C
# Protocol: (§7) Protein lysate of Ca922 cells treated with TMR-GBP 25 μM were blotted with antibodies against Caspase-3, Caspase-7, Caspase-9 and Poly (ADP-ribose) polymerase (PARP). Representative blots are shown.
# Ca922 cells were treated with TMR-GBP and collected at indicated time points. Then blotted for Caspase-3 to observe whether TMR-GBP triggered […] apoptosis pathway.
# as §5
# as §6, with “concentration.” for “concentration. Protein samples were boiled at 100° C. for 15 minutes and resolved by 10% SDS-PAGE gel or 4%-15% gradient gel. Then, transfer to PVDF membrane by 100V or 110V voltage for 1 hour.”
# [8] = system: 293T; assay: WST-8 cell viability assay, 293T; format: cell-based; conditions: 293T (embryonic kidney), different concentrations, 48 hours, FIG. 3
# Protocol: as §1, §2, §3
# [9] = system: Caspase-9; assay: Western blotting of Caspase-9; format: cell-based, human; conditions: Ca922, 25 μM, FIG. 11B
# Protocol: as §7, §5, §6
smiles,measurement,setting,value
CN(C)c1ccc2c(-c3ccc(C(=O)N[C@@H](CC(N)=O)C(=O)N[C@@H](Cc4ccc(O)cc4)C(=O)N[C@@H](CCCNC(=N)N)C(=O)N[C@@H](Cc4c[nH]c5ccccc45)C(=O)N[C@@H](CCCNC(=N)N)C(=O)N[C@@H](CS)C(=O)N[C@@H](CCCCN)C(=O)N[C@@H](CC(N)=O)C(=O)N[C@@H](CCC(N)=O)C(=O)N[C@@H](CC(N)=O)C(=O)O)cc3C(=O)[O-])c3ccc(=[N+](C)C)cc-3oc2c1 [TMR-GBP] (X1-NYRWRCKNQN-OH; N-terminus and C-terminus assumed),cell viability,[1],not markedly affected
same,cytotoxicity (cell viability),[2],could induce cytotoxicity
same,cell viability,[3],not markedly affected
same,protein expression of Bax,[4],increased
same,cytotoxicity (cell viability),[5],could induce cytotoxicity
same,phospho-γH2Ax foci in the nucleus (DNA damage),"[6]; Ca922, 25 μM TMR-GBP, 12 or 24 hours, FIG. 10A",many foci were observed accumulating in the nucleus
same,increase of nuclear γH2Ax intensity,"[6]; Ca922, 25 μM, over control cells or cells co-treated with TMR-GBP and NAC, FIG. 10B",4 folds
same,"phospho-γH2Ax signal, co-treated with NAC","[6]; Ca922, co-treated with TMR-GBP and NAC, FIG. 10A",hardly detected any phospho-γH2Ax signal
same,activation of caspase-3,[7],did not activate
same,cell viability,[8],not markedly affected
same,activation of caspase-9,[9],did not activate
